Test system: hypertriglyceridemic patients with cardiovascular disease or at high risk for cardiovascular disease
Experiment: REDUCE-IT: treatment-emergent adverse events and serious adverse events (safety population)
Details: Safety population, N = 4089
Method: Specification of Variables and Procedures: Safety assessments included adverse events, clinical laboratory measurements (chemistry, hematology), 12-lead ECGs, vital signs (systolic and diastolic blood pressure, heart rate, respiratory rate, and body temperature), weight, waist circumference, and physical examinations as per Study Procedures in Table 1. […] All laboratory test results were evaluated by the investigator as to their clinical significance. Any observations at physical examinations or laboratory values considered by the investigator to be clinically significant were considered an adverse event.
An adverse event can therefore be any unfavorable and/or unintended sign (including an abnormal laboratory finding), symptom, or disease temporally associated with the use of an investigational medication product, whether or not related to the investigational medication product. All adverse events, including observed or volunteered problems, complaints, or symptoms, were recorded on the appropriate CRF. Each adverse event was evaluated for duration, intensity, and causal relationship with the study medication or other factors.
Adverse events, which included clinical laboratory test variables, were monitored from the time of informed consent until study participation was complete. Patients were instructed to report any adverse event that they experienced to the investigator. Beginning with Visit 2, investigators assessed for adverse events at each visit and recorded the event on the appropriate adverse event CRF.
Causality Assessment: The relationship of an adverse event to the administration of the study drug was assessed according to the following definitions: • No (unrelated, not related, no relation)—The time course between the administration of study drug and the occurrence or worsening of the adverse event rules out a causal relationship and another cause (concomitant drugs, therapies, complications, etc.) is suspected. • Yes (related, probably related, possibly related)—The time course between the administration of study drug and the occurrence or worsening of the adverse event is consistent with a causal relationship and no other cause (concomitant drugs, therapies, complications, etc.) can be identified.
Serious Adverse Events: A serious adverse event (SAE) is defined as an adverse event that meets any of the following criteria: • Results in death; • Is life-threatening—The term “life-threatening” in the definition of “serious” refers to an event in which the patient was at risk of death at the time of the event. […] Important medical events that may not result in death, be life threatening, or require hospitalization were considered an SAE when, based upon appropriate medical judgment, they may have jeopardized the patient and may have required medical or surgical intervention to prevent one of the outcomes listed above.
Analysis of Safety: All analyses of safety were conducted on the safety population, which was defined as all randomized patients. The safety assessment was based on the frequency of adverse events, physical exams, vital signs and safety laboratory tests. AEs with new onset during the study between the initiation of study drug and 30 days after the last dose of study drug for each patient was considered treatment-emergent (TEAEs). This included any AE with onset prior to initiation of study drug and increased severity after the treatment initiation.
This included overall incidence rates (regardless of severity and relationship to study drug), and incidence rates for moderate or severe adverse events. A summary of SAEs and adverse events leading to early discontinuation (for ≥30 days) were presented through data listings. Patients who restarted study drug were included in the summary of AEs leading to discontinuation.

With `CC/C=C\C/C=C\C/C=C\C/C=C\C/C=C\CCCC(=O)OCC` [AMR101, eicosapentaenoic acid ethyl ester] the “Serious adverse event - Anemia, n patients” value was 22, the “Serious adverse event - Angina pectoris, % patients” value was “(1.2) %” and the “Serious adverse event - Angina pectoris, n patients” value was 48. The “Serious adverse event - Angina unstable, % patients” value was “(1.0) %”, the “Serious adverse event - Angina unstable, n patients” value was 41 and the “Serious adverse event - Atrial fibrillation, % patients” value was “(0.5) %”. For the same molecule, the “Serious adverse event - Atrial fibrillation, n patients” value was 21, the “Serious adverse event - Blood and lymphatic system disorders (SOC), % patients” value was “(1.0) %” and the “Serious adverse event - Blood and lymphatic system disorders (SOC), n patients” value was 39. For the same molecule, the “Serious adverse event - Cardiac disorders (SOC), % patients” value was “(4.7) %”, the “Serious adverse event - Cardiac disorders (SOC), n patients” value was 192 and the “Serious adverse event - Cardiac failure congestive, % patients” value was “(0.5) %”. For the same molecule, the “Serious adverse event - Cardiac failure congestive, n patients” value was 19, the “Serious adverse event - Cellulitis, % patients” value was “(0.9) %” and the “Serious adverse event - Cellulitis, n patients” value was 36. The “Serious adverse event - Chest pain, % patients” value was “(1.6) %”, the “Serious adverse event - Chest pain, n patients” value was 66 and the “Serious adverse event - Chronic obstructive pulmonary disease, % patients” value was “(0.8) %”. For the same molecule, the “Serious adverse event - Chronic obstructive pulmonary disease, n patients” value was 33, the “Serious adverse event - Gastrointestinal disorders (SOC), % patients” value was “(4.7) %” and the “Serious adverse event - Gastrointestinal disorders (SOC), n patients” value was 191. The “Serious adverse event - Gastrointestinal hemorrhage, % patients” value was “(0.6) %”, the “Serious adverse event - Gastrointestinal hemorrhage, n patients” value was 26 and the “Serious adverse event - General disorders and administration site conditions (SOC), % patients” value was “(3.4) %”. For the same molecule, the “Serious adverse event - General disorders and administration site conditions (SOC), n patients” value was 139, the “Serious adverse event - Musculoskeletal and connective tissue disorders (SOC), % patients” value was “(4.6) %” and the “Serious adverse event - Musculoskeletal and connective tissue disorders (SOC), n patients” value was 188. The “Serious adverse event - Neoplasms benign, malignant, and unspecified (incl cysts and polyps) (SOC), % patients” value was “(5.4) %”, the “Serious adverse event - Neoplasms benign, malignant, and unspecified (incl cysts and polyps) (SOC), n patients” value was 222 and the “Serious adverse event - Nervous system disorders (SOC), % patients” value was “(2.5) %”. The “Serious adverse event - Nervous system disorders (SOC), n patients” value was 104, the “Serious adverse event - Non-cardiac chest pain, % patients” value was “(1.2) %” and the “Serious adverse event - Non-cardiac chest pain, n patients” value was 49. For the same molecule, the “Serious adverse event - Osteoarthritis, % patients” value was “(2.0) %”, the “Serious adverse event - Osteoarthritis, n patients” value was 81 and the “Serious adverse event - Pneumonia, % patients” value was “(2.6) %”. The “Serious adverse event - Pneumonia, n patients” value was 105, the “Serious adverse event - Prostate cancer, % patients” value was “(0.6) %” and the “Serious adverse event - Prostate cancer, n patients” value was 26. The “Serious adverse event - Pulmonary embolism, % patients” value was “(0.3) %”, the “Serious adverse event - Pulmonary embolism, n patients” value was 14 and the “Serious adverse event - Renal and urinary disorders (SOC), % patients” value was “(2.9) %”. The “Serious adverse event - Renal and urinary disorders (SOC), n patients” value was 120, the “Serious adverse event - Respiratory, thoracic, and mediastinal disorders (SOC), % patients” value was “(3.5) %” and the “Serious adverse event - Respiratory, thoracic, and mediastinal disorders (SOC), n patients” value was 143. For the same molecule, the “Serious adverse event - Syncope, % patients” value was “(0.7) %”, the “Serious adverse event - Syncope, n patients” value was 28 and the “Severe TEAE, %” value was “(19.7) %”. The “Severe TEAE: Acute kidney injury, %” value was “(0.7) %”, the “Severe TEAE: Acute respiratory failure, %” value was “(0.5) %” and the “Severe TEAE: Angina pectoris, %” value was “(0.2) %”. For the same molecule, the “Severe TEAE: Angina unstable, %” value was “(0.3) %”, the “Severe TEAE: Back pain, %” value was “(0.5) %” and the “Severe TEAE: Cardiac disorders, %” value was “(2.4) %”. The “Severe TEAE: Chest pain, %” value was “(0.7) %”, the “Severe TEAE: Chronic obstructive pulmonary disease, %” value was “(0.4) %” and the “Severe TEAE: General disorders and administration site conditions, %” value was “(1.9) %”. For the same molecule, the “Severe TEAE: Musculoskeletal and connective tissue disorders, %” value was “(2.9) %”, the “Severe TEAE: Nervous system disorders, %” value was “(1.9) %” and the “Severe TEAE: Osteoarthritis, %” value was “(0.8) %”. For the same molecule, the “Severe TEAE: Pneumonia, %” value was “(1.5) %”, the “Severe TEAE: Renal and urinary disorders, %” value was “(1.9) %” and the “Severe TEAE: Respiratory, thoracic, and mediastinal disorders, %” value was “(2.5) %”. The “Severe TEAE: Syncope, %” value was “(0.3) %”, the “Study Drug-Related Serious TEAE Leading to Withdrawal of Study Drug, %” value was “(0.0) %” and the “Study Drug-Related Serious TEAE, %” value was “(0.2) %”. For the same molecule, the “Study Drug-Related TEAE Leading to Withdrawal of Study Drug, %” value was “(3.4) %”, the “Study Drug-Related TEAE, %” value was “(12.6) %” and the “Study drug-related TEAE leading to study drug withdrawal - Abdominal discomfort, % patients” value was “(0.1) %”. For the same molecule, the “Study drug-related TEAE leading to study drug withdrawal - Abdominal discomfort, n patients” value was 6, the “Study drug-related TEAE leading to study drug withdrawal - Abdominal distension, % patients” value was “(0.1) %” and the “Study drug-related TEAE leading to study drug withdrawal - Abdominal distension, n patients” value was 3. For the same molecule, the “Study drug-related TEAE leading to study drug withdrawal - Abdominal pain upper, % patients” value was “(0.1) %”, the “Study drug-related TEAE leading to study drug withdrawal - Abdominal pain upper, n patients” value was 4 and the “Study drug-related TEAE leading to study drug withdrawal - Abdominal pain, % patients” value was “(0.0) %”. For the same molecule, the “Study drug-related TEAE leading to study drug withdrawal - Abdominal pain, n patients” value was 1, the “Study drug-related TEAE leading to study drug withdrawal - Abnormal feces, % patients” value was “(0.0) %” and the “Study drug-related TEAE leading to study drug withdrawal - Abnormal feces, n patients” value was 0. For the same molecule, the “Study drug-related TEAE leading to study drug withdrawal - Arthralgia, % patients” value was “(0.2) %”, the “Study drug-related TEAE leading to study drug withdrawal - Arthralgia, n patients” value was 7 and the “Study drug-related TEAE leading to study drug withdrawal - Arthritis, % patients” value was “(0.1) %”. The “Study drug-related TEAE leading to study drug withdrawal - Arthritis, n patients” value was 3, the “Study drug-related TEAE leading to study drug withdrawal - Constipation, % patients” value was “(0.1) %” and the “Study drug-related TEAE leading to study drug withdrawal - Constipation, n patients” value was 4. The “Study drug-related TEAE leading to study drug withdrawal - Diarrhea, % patients” value was “(1.0) %”, the “Study drug-related TEAE leading to study drug withdrawal - Diarrhea, n patients” value was 41 and the “Study drug-related TEAE leading to study drug withdrawal - Dyspepsia, % patients” value was “(0.1) %”. The “Study drug-related TEAE leading to study drug withdrawal - Dyspepsia, n patients” value was 4, the “Study drug-related TEAE leading to study drug withdrawal - Eructation, % patients” value was “(0.1) %” and the “Study drug-related TEAE leading to study drug withdrawal - Eructation, n patients” value was 3. The “Study drug-related TEAE leading to study drug withdrawal - Flatulence, % patients” value was “(0.1) %”, the “Study drug-related TEAE leading to study drug withdrawal - Flatulence, n patients” value was 6 and the “Study drug-related TEAE leading to study drug withdrawal - Gastric disorder, % patients” value was “(0.1) %”. The “Study drug-related TEAE leading to study drug withdrawal - Gastric disorder, n patients” value was 4.

Source: patent US12427134B2, “Methods of reducing the risk of cardiovascular events in a subject with atrial fibrillation and/or atrial flutter” (priority 2019, dated 2025)
